Where a chain is given by its changes, count along the chain named. Where two headings read alike, the source gives them in different places.
Assays:
Pseudomonas aeruginosa = assay: Growth assay with exogenous DHNA in LB medium (OD600), control bacterium; conditions: DHNA concentrations up to 150 µM, 37°C, 24 h
Method: (§4) Sau and Pseudomonas aeruginosa (electronic supplementary material, table S2) were grown for 18 ± 2 h in 5 ml of LB medium at 37°C and 180 r.p.m. Cultures were then diluted in fresh LB medium to contain 2.7 × 10^6 CFU ml^−1. A Nunc Microwell 96-well flat-bottom plate (Thermo Scientific) was seeded in triplicate (from three independent starter cultures) with 75 µl of each of the diluted cultures and 75 µl of 2× working solutions of DHNA, MK-4 or DHNA + MK-4 (prepared from the following stock solutions: 100 mM DHNA dissolved in dimethyl sulfoxide (DMSO), and 50 mM MK-4 (Sigma-Aldrich) dissolved in 100% ethanol). Plate wells contained a final concentration of 10^6 CFU well^−1 with 0, 50 or 100 µM DHNA for growth assays, or with 0 or 100 µM DHNA supplemented with 337 µM MK-4 for growth rescue assays. Plates were incubated at 37°C and 300 r.p.m. for 24 h. Growth was determined by measuring the OD600 of the cultures every 30 min during the incubation period. Data from biological replicates were averaged and subtracted from blank data (sterile medium with appropriate additives).

[1] = system: Sau-MenDIS1 Lys283Ala mutant (Staphylococcus aureus, K283A); assay: UV spectroscopy assay of isochorismate consumption, DHNA inhibition; conditions: four-parameter Hill fit; complete CI not determinable, best-fit value to be interpreted with caution
[2] = molecular target: Sau-MenDIS1 Lys283Ala mutant (Staphylococcus aureus, UniProt Q5HH40, K283A); assay: as above
Sau-MenDATCC 25923 [3] = molecular target: T1, Sau-MenDATCC 25923 (Staphylococcus aureus, UniProt Q5HH40); assay: as above; assay type: biochemical
Sau-MenDATCC 25923 [4] = molecular target: T1, Sau-MenDATCC 25923; assay: Intrinsic fluorescence quenching upon DHNA titration; assay type: binding; conditions: 1 µM enzyme
Method: (§1) Intrinsic fluorescence quenching experiments were performed at 25°C with a Varian Cary Eclipse Fluorescence Spectrophotometer (Agilent Technologies) with slits set at 5 nm bandwidth. The excitation wavelength was 290 nm and emission spectra were recorded in the 300–400 nm range. […] For Sau-MenD samples in the presence of the reaction ligands, the enzyme was preincubated with 100 µM ThDP only or 100 µM ThDP and 300 µM oxoglutarate for 45 min at ambient temperature. DHNA (Sigma-Aldrich) was titrated from stock solutions that were prepared in the assay buffer and kept on ice. Following DHNA addition, cuvette contents were mixed immediately and fluorescence intensity was measured.
(§2) The fluorescence intensities obtained at 340 nm were corrected for the dilution factor as well as for inner filter effects using equation (2.1),2.1 Fi corr=Fi dil ×10^Aex+Aem/2, where Fi corr is the corrected value of fluorescence intensity at the titration point, Fi dil is the dilution-corrected fluorescence intensity measured, and Aex and Aem are the absorbance of DHNA at excitation (290 nm) and emission wavelengths (340 nm).
(§3) Corrected intensities were plotted against the DHNA concentration and, to determine the Kd value for DHNA, the resulting data were fitted in GraphPad Prism 9 using equation (2.2),2.2 F=Fmax−(X+Kd+M−(X+Kd+M)^2−4XM)/2M(Fmax−Fmin), where F is the measured fluorescence intensity of Sau-MenD, Fmax is the fluorescence intensity of Sau-MenD in the absence of DHNA, Fmin is the fluorescence intensity when Sau-MenD is saturated with DHNA, M is the micromolar concentration of enzyme used in the assay, X is the micromolar DHNA concentration and Kd is the dissociation constant.

Sau-MenDIS1 = Sau-MenDIS1 (Staphylococcus aureus, UniProt Q2FZL7); assay: as above; assay type: binding
Method: as §1, §2, §3

WT Sau-MenDIS1 = WT Sau-MenDIS1 (Staphylococcus aureus, UniProt Q2FZL7); assay: UV spectroscopy assay of isochorismate consumption (SEPHCHC synthase activity), DHNA inhibition; assay type: biochemical
Sau = system: Sau; set-up: method as in PMID 35091344; conditions: addition to culture medium; cited from earlier work
[5] = system: four different Sau strains; assay: Growth assay with exogenous DHNA in LB medium (OD600); conditions: 37°C, 24 h
Method: as §4

Mtb-MenD = system: Mtb-MenD; set-up: method as in PMID 32029475; conditions: 0.6 µM Mtb-MenD; read-out: IC50 of DHNA, SEPHCHC activity; cited from earlier work
[6] = molecular target: Sau-MenDIS1 Arg98Ala mutant (Staphylococcus aureus, UniProt Q2FZL7, R98A); assay: UV spectroscopy assay of isochorismate consumption, DHNA inhibition
[7] = molecular target: Sau-MenDIS1 Lys309Ala mutant (Staphylococcus aureus, UniProt Q2FZL7, K309A); assay: as above
Sau strains = assay: MK-4 growth rescue assay (OD600); assay type: cell-based, Staphylococcus aureus; conditions: 24 h
[8] = molecular target: the molecule itself; assay: native MS; protein exchanged from SEC buffer into 2 M ammonium acetate pH 7.4; Sau-MenDIS1 4.7 mg/ml, Sau-MenD ATCC 25923 6.3 mg/ml; gold-coated glass capillaries, Synapt XS, soft ionization
[9] = four-parameter logistic Hill fit of DHNA inhibition
[10] = read-out: activity reduction in the presence of 12.5 µM DHNA

For O=C(O)c1cc(O)c2ccccc2c1O [DHNA, 1,4-dihydroxy-2-naphthoic acid], the effect on growth (Pseudomonas aeruginosa) was “unaffected”, the Hill slope [1] was −1.2 and the IC50 [2] was over 10 µM. The “activity reduction in the presence of 12.5 µM DHNA” value (Sau-MenDATCC 25923 [3]; 12.5 µM DHNA, 0.4 µM enzyme, 100 µM ThDP, 300 µM oxoglutarate, 10 µM isochorismate) was 87%, the Hill slope (Sau-MenDATCC 25923 [3]; [9]) was −0.99 and the IC50 (Sau-MenDATCC 25923 [3]; read-out: IC50 of DHNA, 0.4 µM enzyme, 100 µM ThDP, 300 µM oxoglutarate, 10 µM isochorismate) was 2.3 µM. For the same molecule, the Kd (Sau-MenDATCC 25923 [4]; + 100 μM ThDP/300 μM oxoglutarate) was 67 µM, the Kd (Sau-MenDATCC 25923 [4]; apo-enzyme, 25°C) was 85 µM and the Kd (Sau-MenDIS1; + 100 μM ThDP, 1 µM enzyme, read-out: Kd for DHNA) was 98 µM. The Kd (Sau-MenDIS1; + 100 μM ThDP/300 μM oxoglutarate, 1 µM enzyme, read-out: Kd for DHNA) was 58 µM, the Kd (Sau-MenDIS1; apo-enzyme, 1 µM enzyme, 25°C, read-out: Kd for DHNA) was 110 µM and the Kd (Sau-MenDIS1; apo-enzyme, ThDP-bound and ThDP- and oxoglutarate-bound forms, read-out: Kd values for DHNA (span over enzyme forms)) was 58 to 110 µM. It also gave an IC50 (WT Sau-MenDIS1; 0.4 µM enzyme, 100 µM ThDP, 300 µM oxoglutarate, 10 µM isochorismate, 30 min preincubation 37°C) of 3.7 µM, an inhibition at 12.5 µM (WT Sau-MenDIS1; 12.5 µM DHNA, 0.4 µM enzyme, 100 µM ThDP, 300 µM oxoglutarate, 10 µM isochorismate, read-out: activity reduction in the presence of 12.5 µM DHNA) of 82% and a Hill slope (WT Sau-MenDIS1; [9]) of −1.0. The “effect on susceptibility of Sau to cannabidiol” value (Sau) was “increased the susceptibility”, the effect on growth ([5]; 50 µM DHNA, all four Sau strains) was “clearly impaired the growth” and the effect on growth ([5]; 100 µM DHNA) was “growth impact was more severe”. For the same molecule, the effect on growth ([5]; 150 µM DHNA, all four Sau) was “completely inhibited”, the IC50 (Mtb-MenD) was 0.053 µM and the IC50 [6] was over 10 µM. It also gave a Hill slope ([6]; four-parameter Hill fit, complete CI not determinable, best-fit value to be interpreted with caution) of −2.3, an inhibition at 12.5 µM [6, 10] of 21% and an IC50 [7] of 4.6 µM. It also gave a Hill slope [7, 9] of −1.0 and an inhibition at 12.5 µM [7, 10] of 80%.

For CC(C)=CCC/C(C)=C/CC/C(C)=C/CC/C(C)=C/CC1=C(C)C(=O)c2ccccc2C1=O [MK-4], the “effect on susceptibility of Sau to cannabidiol” value (Sau) is listed as “prevented cannabidiol-mediated growth impairment”, the “effect on growth, MK-4 alone” value (Sau strains; 337 µM MK-4 (150 µg ml−1), absence of DHNA) is listed as “slightly impacted the growth” and the “growth rescue of DHNA-treated Sau” value (Sau strains; 337 µM MK-4 added to medium containing 100 µM DHNA, compared with 100 µM DHNA only) is listed as “significant growth improvement”.

B1: Staphylococcus aureus IS1 MenD (SEPHCHC synthase), wild type (enzyme, UniProt Q2FZL7 1-557, looked up)
chain: MGNHKAALTKQVFTFASELYAYGVREVVISPGSRSTPLALAFEAHPNIKTWIHPDERSAAFFAVGLIKGSERPVAILCTSGTAAANYTPAIAESQISRIPLIVLTSDRPHELRSVGAPQAINQVNMFNNYVSYEFDMPIADDSKETIDAIYYQMQIASQYLYGPHKGPIHFNLPFRDPLTPDLNATELLTSEMKILPHYQKSIDASALRHILNKKKGLIIVGDMQHQEVDQILTYSTIYDLPILADPLSHLRKFDHPNVICTYDLLFRSGLDLNVDFVIRVGKPVISKKLNQWLKKTDAFQILVQNNDKIDVFPIAPDISYEISANDFFRSLMEDTTVNRVSWLEKWQCLEKKGRKEIKCYLEQATDESAFVGELIKKTSEKDALFISNSMPIRDVDNLLLNKNIDVYANRGANGIDGIVSTALGMAVHKRITLLIGDLSFYHDMNGLLMSKLNNIQMNIVLLNNDGGGIFSYLPQKESATDYFERLFGTPTGLDFEYTAKLYQFDFKRFNSVSEFKNATLLSETSTIYELITNREDNFKQHQILYQKLSEMIHDTL
notes: MenD (SEPHCHC synthase) of Staphylococcus aureus IS1; the structure numbers residues up to 557; Cloned in a modified pET30a by NcoI and HindIII; also called Sau-MenDIS1; Sau-MenD IS1; source: E. coli BL21 (DE3), purified (IMAC, TEV cleavage, subtractive IMAC, SEC); not shown: His6, N-terminal, cleaved
For B1, the “stoichiometry N” value [8] was 4.

B2: Staphylococcus aureus ATCC 25923 MenD (SEPHCHC synthase) (enzyme)
chain: B1 chain with N274K, C349R, L350I, I432V, S512N
In the case of B2, the “stoichiometry N” value [8] is reported as 4.

From PMC9835592, “Allosteric inhibition of Staphylococcus aureus MenD by 1,4-dihydroxy naphthoic acid: a feedback inhibition mechanism of the menaquinone biosynthesis pathway” (Philosophical Transactions of the Royal Society B: …, 2023)
